Test results from PubChem BioAssay (NCI).
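Grown in 96-well plates, cells were treated for 48 hours with each compound at five concentrations. Insufficient inhibition: endpoint recorded as highest concentration tested. Abbreviation: GI50, concentration required for 50% inhibition of growth. Definition used: TGI = concentration required for complete inhibition of growth.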

How the values were obtained:
Assay in all cases: NCI anticancer screen, dose series, 48 h
[1] = system: A498 renal
[2] = system: UACC-257 melanoma
[3] = system: SK-MEL-5 melanoma
[4] = system: EKVX NSCLC
[5] = system: TK-10 renal
[6] = system: UO-31 renal
[7] = system: OVCAR-4 ovarian
[8] = system: A549 NSCLC
[9] = system: KM12 colon
[10] = system: MCF7 breast

SMILES	GI50 [1] [nM]	TGI [1] [µM]	GI50 [2] [µM]	TGI [2] [µM]	GI50 [3] [nM]	TGI [3] [µM]	GI50 [4] [µM]	TGI [4] [µM]	GI50 [5] [µM]	TGI [5] [µM]	GI50 [6] [nM]	GI50 [7] [nM]	TGI [7] [µM]	TGI [8] [µM]	TGI [6] [µM]	TGI [9] [µM]	GI50 [8] [µM]	GI50 [9] [µM]	GI50 [10] [µM]	TGI [10] [µM]
Clc1ccc2c(NCCCN3CCN(c4nc(-n5ccnc5)nc5ccccc45)CC3)ccnc2c1	2550	> 26.8	2	3.81	1740	3.17	> 28.4	> 100	1.72	3.39	2490	> 100000	> 100							
CC1CC(=O)C(C(O)CC2CC(=O)N(c3ccccc3)C(=O)C2)C(C)C1 (centres undefined)		> 100		> 100				> 100		> 100			> 100	> 100	> 100	> 100				
COCCN1C2=CCCCC2=Nc2c(N)nc(N)nc21		> 100		> 100		> 100				> 100				> 100	> 100	> 100				
COc1cc2c(cc1OC)-c1c(cc(OC)c(OC)c1OC)C2=O				> 100		> 100		> 100		> 100				> 100	> 100	> 100				
CN/N=C(\C)CC(=O)Nc1cccc(Cl)c1C		> 100		> 100		> 100		> 100		> 100			> 100	> 100	> 100	> 100				
Cc1ccccc1NC(=O)C(=O)Cc1nc2ccccc2s1		> 100		> 100		> 100				> 100			> 100	> 100	> 100	> 100				
O=C(O)C1Cc2nc[nH]c2CN1 (centres undefined)		> 100		> 100		> 100		> 100		> 100			> 100	> 100	> 100	> 100				
CC(C)OCN1COCN=C1NC#N		> 100		> 100		> 100		> 100		> 100			> 100	> 100	> 100	> 100				
COc1ccc(C(=O)C(C(=O)C(=O)Nc2nc3ccc(OC)cc3s2)c2ccc(OC)cc2)cc1 (centres undefined)		> 100		> 100		> 100		> 100		> 100			> 100	> 100	> 100	> 100				
COC1OC(C)C(OC(=O)C(C)(C)C)C(C)(O)C1O (centres undefined)		> 100		> 100		> 100				> 100			> 100	> 100		> 100				
Oc1cccc(C2SCc3nc4ccccc4n32)c1 (centres undefined)		> 100		> 100		38.2		> 100		> 100				> 100	> 100	> 100				
COC(=O)C(C(=O)C(=O)Nc1ccccc1OC)c1csc(-n2nc(-c3ccccc3)cc2-c2ccccc2)n1 (centres undefined)		> 100		> 100				> 100		> 100			> 100	> 100	> 100	> 100				
COc1ccc(-c2c(N)[n+]([O-])c3cc(C)c(C)cc3[n+]2[O-])cc1OC		> 100		> 100		74.3		> 100		> 100			> 100	> 100	> 100	> 100				
CCCCCN(CCCCC)C(=O)[C@@H](CCC(=O)OCc1ccccc1)NC(=O)c1cc2ccccc2[nH]1		> 100		> 100				> 100					> 100	> 100	> 100	> 100				
Fc1cccc(F)c1C1SCc2nc3ccccc3n21 (centres undefined)		> 100		> 100		75.4		> 100		> 100			> 100	> 100	> 100	> 100				
COCCOC(C)C(/C=N/NC(N)=S)=N/NC(N)=S (centres undefined)	> 100000	> 100	0.0232	> 100	> 100000	> 100	0.0905	> 100	> 100	> 100	51.3	35.5	> 100	> 100	> 100	> 100	> 100	> 100		
CCOC(=O)c1c(C)c2c(n1C)CSc1cc(S(=O)(=O)c3ccccc3)c(=O)[nH]c1-2			34.5	> 100	13200	29.6	14.6	74.9	34.4	> 100	17400	27800	> 100	> 100	> 100	> 100	30.2	28.8	19.3	> 100
O=C1C=C(Br)C(=O)C(Br)=C1		> 100		> 100		> 100		> 100		> 100			> 100	> 100	> 100	> 100				
COc1cc(C2C(C(=O)O)=C(C)Oc3cc4c(cc32)OCO4)cc(OC)c1OC (centres undefined)				> 100		> 100		> 100		> 100			> 100	> 100	> 100					
C[C@]12CC[C@@H]3c4ccc(O)cc4CC[C@H]3[C@@H]1CC[C@@H]2NS(=O)(=O)c1cccc(Br)c1	1800	8.45	5.1	20	1770	3.31			3.43	12.1	2030	2450	9.98	13.1	8.72	6.76	3.11	2.31	3.74	10.9
CC(=O)O[C@H]1CCC2[C@@H]3CCC4C(=O)c5oncc5C[C@]4(C)C3CC[C@@]21C (some centres undefined)		> 100		> 100		> 100		> 100		> 100			> 100	> 100		> 100				
CC(=O)Nc1ccc(/C=c2\sc3nnc(/C=C/c4ccccc4)n3c2=O)cc1		> 50		> 50		> 50		> 50		> 50			> 50	> 50	> 50	> 50				
